Data published in patent US20080249035A1, “Polymorph of Clarithromycin (Form V)” (Gruenenthal GmbH, priority 2007, published 2008).

Experiment: Interconversion tests in acetone (thermodynamic/physical stability of polymorphic forms)
Assay type: physicochemical
Experimental: To investigate physical stability in comparison with the known forms form I and form II, the following experiments were carried out (interconversion tests): • a) about 100 mg of form I and approx. 100 mg of form II were put in a 20 ml vial and suspended in 2.5 ml acetone p.a. • b) about 100 mg of form V and approx. 100 mg of form I were put in a 20 ml vial and suspended in 2.5 ml acetone p.a. • c) about 100 mg of form V and approx. 100 mg of form II were put in a 20 ml vial and suspended in 2.5 ml acetone p.a.
All three suspensions were first shaken at room temperature (approx. 20° C.) on a PLS synthesizer at 400 rpm for approx. 2 h. For 20 h the temperature of the suspensions was raised to 40° C. and then left to cool to room temperature (approx. 20° C.) again.
Then the solids were filtered with suction on a G4 frit, made into a slurry with 0.5 ml acetone p.a., washed, and then dried by suction in an air stream, applying a light vacuum.
The crystalline solids were in each case characterized by DSC, XRPD, Raman and TG investigations.

| Structure (SMILES) | Product (polymorphic form obtained from the starting mixture in the interconversion test) (approx. 100 mg of each form suspended in 2.5 ml acetone, approx. 2 h at room temperature (approx. 20° C.), 20 h at 40° C., cooled to room temperature, solids characterized by DSC, XRPD, Raman, TG) | Relative thermodynamic stability of the forms under the test conditions (interconversion tests in acetone, 20 to 40° C.) |
| --- | --- | --- |
| CC[C@H]1OC(=O)[C@H](C)[C@@H](O[C@H]2C[C@@](C)(OC)[C@@H](O)[C@H](C)O2)[C@H](C)[C@@H](O[C@@H]2O[C@H](C)C[C@H](N(C)C)[C@H]2O)[C@](C)(OC)C[C@@H](C)C(=O)[C@H](C)[C@@H](O)[C@]1(C)O [Form I/Form II, clarithromycin] | Form II |  |
| CC[C@H]1OC(=O)[C@H](C)[C@@H](O[C@H]2C[C@@](C)(OC)[C@@H](O)[C@H](C)O2)[C@H](C)[C@@H](O[C@@H]2O[C@H](C)C[C@H](N(C)C)[C@H]2O)[C@](C)(OC)C[C@@H](C)C(=O)[C@H](C)[C@@H](O)[C@]1(C)O [Form II, clarithromycin] |  | thermodynamically more stable than form V as well as more stable than form I |
